Data reported in patent US12370188B2, “Formulations of dazucorilant, a glucocorticoid receptor modulator” (Corcept Therapeutics Incorporated, priority 2022, dated 2025).

Assay: Solubility of Compound I in water
Format: physicochemical
Description: Compositions prepared by routine methods, even if able to solubilize small amounts of Compound I, have proven unstable with Compound I falling out of solution, or in which Compound I is found to be subject to rapid degradation, or incompatible with a pharmaceutically acceptable capsule.

Compound: O=C(c1ccccn1)[C@]12Cc3cnn(-c4ccc(F)cc4)c3C=C1CCN(S(=O)(=O)c1ccc(C(F)(F)F)cc1)C2 [Compound I, (R)-(1-(4-fluorophenyl)-6-((4-(trifluoromethyl)phenyl)sulfonyl)-4,4a,5,6,7,8-hexahydro-1H-pyrazolo[3,4-g]isoquinolin-4a-yl)(pyridin-2-yl)methanone]
- solubility in water: practically insoluble
